PubChem BioAssay (NCI)
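Interpolation was linear, between the two tested concentrations surrounding the appropriate level; five concentrations were tested over 48 hours in 96-well plates. TGI is the concentration that stops growth completely.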

Experiments:
Assay in all cases: NCI tumour cell line growth inhibition, 48 h
[1] = system: HOP-62 NSCLC
[2] = system: CAKI-1 renal
[3] = system: ACHN renal
[4] = system: SN12C renal
[5] = system: UACC-62 melanoma
[6] = system: PC-3 prostate
[7] = system: DU-145 prostate
[8] = system: HOP-92 NSCLC
[9] = system: MDA-N
[10] = system: NCI/ADR-RES ovarian
[11] = system: KM12 colon
[12] = system: SR leukemia
[13] = system: A549 NSCLC
[14] = system: SW-620 colon
[15] = system: HT29 colon
[16] = system: OVCAR-5 ovarian
[17] = system: UO-31 renal

For O=C(O)c1ccc(C(c2c(O)c3ccccc3oc2=O)c2c(O)c3ccccc3oc2=O)cc1, the TGI [1] was > 100 µM, the TGI [2] was > 100 µM and the TGI [3] was > 100 µM. For the same molecule, the TGI [4] was > 100 µM, the TGI [5] was > 100 µM and the TGI [6] was > 100 µM. The TGI [7] was > 100 µM, the TGI [8] was 6.04 µM and the TGI [9] was > 100 µM. For the same molecule, the TGI [10] was > 100 µM, the TGI [11] was > 100 µM and the TGI [12] was > 100 µM. The TGI [13] was > 100 µM, the TGI [14] was > 100 µM and the TGI [15] was > 100 µM. The TGI [16] was > 100 µM and the TGI [17] was > 100 µM.

For O=c1oc2ccc3ccccc3c2cc1-c1nc2ccccc2o1, the TGI [1] was > 52.1 µM, the TGI [2] was 40.8 µM and the TGI [3] was 29.9 µM. For the same molecule, the TGI [4] was > 64.1 µM, the TGI [5] was > 100 µM and the TGI [6] was > 74.9 µM. For the same molecule, the TGI [7] was > 52.3 µM, the TGI [8] was 39.3 µM and the TGI [9] was > 54.4 µM. For the same molecule, the TGI [10] was 51.7 µM, the TGI [11] was > 63.2 µM and the TGI [12] was > 85.6 µM. For the same molecule, the TGI [13] was > 55.2 µM, the TGI [14] was 55.1 µM and the TGI [15] was 48.4 µM. The TGI [16] was > 100 µM and the TGI [17] was > 54.8 µM.

For CCOC(=O)CCC(NC(=O)c1ccc(Nc2nc3ccccc3nc2-c2cccs2)cc1)C(=O)OCC (stereo unspecified), the TGI [1] was > 100 µM, the TGI [2] was > 100 µM and the TGI [3] was > 100 µM. For the same molecule, the TGI [4] was > 100 µM, the TGI [5] was > 100 µM and the TGI [6] was > 100 µM. The TGI [7] was > 100 µM, the TGI [8] was > 100 µM and the TGI [9] was > 100 µM. The TGI [10] was > 100 µM, the TGI [11] was > 100 µM and the TGI [12] was > 100 µM. The TGI [13] was > 100 µM, the TGI [14] was > 100 µM and the TGI [15] was > 100 µM. The TGI [16] was > 100 µM and the TGI [17] was > 100 µM.

With N#CC(c1cc2c(cc1Br)OCO2)N1CCOCC1 (stereo unspecified) the TGI [1] was > 100 µM, the TGI [2] was > 100 µM and the TGI [3] was > 100 µM. The TGI [4] was > 100 µM, the TGI [5] was > 100 µM and the TGI [6] was 71.2 µM. The TGI [7] was > 100 µM, the TGI [8] was > 100 µM and the TGI [9] was > 100 µM. For the same molecule, the TGI [10] was > 100 µM, the TGI [11] was > 100 µM and the TGI [12] was 60.3 µM. The TGI [13] was > 100 µM, the TGI [14] was > 100 µM and the TGI [15] was > 100 µM. For the same molecule, the TGI [16] was > 100 µM and the TGI [17] was > 100 µM.

CN(C)c1nc(-c2ccccc2)c(C(=O)c2c[nH]c3ccccc23)s1 was tested, and the TGI [1] was > 100 µM, the TGI [2] was > 100 µM and the TGI [3] was > 100 µM. The TGI [4] was > 100 µM, the TGI [5] was > 100 µM and the TGI [6] was > 100 µM. For the same molecule, the TGI [7] was > 100 µM, the TGI [8] was > 33.2 µM and the TGI [9] was 20.2 µM. The TGI [10] was > 100 µM, the TGI [11] was > 100 µM and the TGI [12] was > 100 µM. The TGI [13] was > 100 µM, the TGI [14] was > 100 µM and the TGI [15] was > 100 µM. For the same molecule, the TGI [16] was > 100 µM and the TGI [17] was > 100 µM.

With O=C1C=C(NCCc2cc(Br)c(O)c(Br)c2)C(=O)c2ncccc21 the TGI [1] was 3.59 µM, the TGI [2] was 17.5 µM and the TGI [3] was 22 µM. It also gave a TGI [4] of 2.95 µM, a TGI [5] of 2.93 µM and a TGI [6] of 27.1 µM. The TGI [7] was 2.99 µM, the TGI [8] was 25.6 µM and the TGI [9] was 1.23 µM. For the same molecule, the TGI [10] was 27.5 µM, the TGI [11] was 23.4 µM and the TGI [12] was 7.31 µM. For the same molecule, the TGI [13] was 4.79 µM, the TGI [14] was 8.6 µM and the TGI [15] was 7.36 µM. It also gave a TGI [16] of 3.95 µM and a TGI [17] of 20.2 µM.

In the case of COC(=O)CCn1cnc2c(SC)ncnc21, the TGI [1] was > 100 µM, the TGI [2] was > 100 µM and the TGI [3] was > 100 µM. The TGI [4] was > 100 µM, the TGI [5] was > 100 µM and the TGI [6] was > 100 µM. For the same molecule, the TGI [7] was > 100 µM, the TGI [8] was > 100 µM and the TGI [9] was > 100 µM. The TGI [10] was > 100 µM, the TGI [11] was > 100 µM and the TGI [12] was > 100 µM. For the same molecule, the TGI [13] was > 100 µM, the TGI [14] was > 100 µM and the TGI [15] was > 100 µM. The TGI [16] was > 100 µM and the TGI [17] was > 100 µM.

For CCOC(=O)NC(NC(C)CC)(C(F)(F)F)C(F)(F)F (stereo unspecified), the TGI [1] was > 100 µM, the TGI [2] was > 100 µM and the TGI [3] was > 100 µM. For the same molecule, the TGI [4] was > 100 µM, the TGI [5] was > 100 µM and the TGI [6] was > 100 µM. The TGI [7] was > 100 µM, the TGI [8] was > 100 µM and the TGI [9] was > 100 µM. The TGI [10] was > 100 µM, the TGI [11] was > 100 µM and the TGI [12] was > 100 µM. The TGI [13] was > 100 µM, the TGI [14] was > 100 µM and the TGI [15] was > 100 µM. For the same molecule, the TGI [16] was > 100 µM and the TGI [17] was > 100 µM.
